Source: patent US20220296573A1, “NOVEL COMPOUNDS AND PHARMACEUTICAL COMPOSITIONS THEREOF FOR THE TREATMENT OF INFLAMMATORY DISORDERS” (Galapagos NV, priority 2019, published 2022)
Values after ≈ are worked out from the molar mass of the structure shown.

Assays:
[1] = test system: Mouse Hepatocyte; test: Metabolic stability in mouse hepatocytes; assay type: in vitro ADME; conditions: mouse cryopreserved hepatocytes, 1 μM
Experimental: (§1) The aim of this assay is to determine the metabolic stability of the compound in hepatocytes (cryopreserved) of different species. Low hepatocyte stability may result in the formation of unwanted metabolites, high clearance, and therefore is not desirable.
(§2) A 10 mM stock solution of test compound in DMSO was first diluted in DMSO to 3 mM, and then in modified Krebs-Henseleit buffer (Sigma, K3753) to 5 μM. This compound dilution was added to a suspension of pooled cryopreserved hepatocytes (BioreclamationIVT) at 37° C. under gentle shaking.
(§3) Final reaction conditions were: 1 μM of test compound, 0.03% DMSO, 0.5 million viable hepatocytes/mL, and 75 μL incubation volume.
(§4) Testosterone (1 μM) and 7-hydroxycoumarin (1 μM) were used, respectively as phase I and phase II metabolic reaction controls.
(§5) After 0, 10, 20, 45, 90, 120 and 180 min of incubation, the reaction was terminated with 225 μL of MeCN:MeOH (2:1) containing 100 ng/mL of diclofenac as analytical internal standard. Samples were mixed, centrifuged and the supernatant analyzed by LC-MS/MS.
(§6) The instrument responses (ratios of test compound and internal standard peak areas) were referenced to the zero time point samples (considered as 100%) in order to determine the percentage of compound remaining.
(§7) Plots of percentage compound remaining were used to determine the intrinsic clearance in the hepatocyte incubations using the following equations:
(§8) Scaled Clint [L/h/kg]=Clint [μL/min/10^6 cells]*#(10) cells/g liver*60*(1/10^6) Scaled Clint unbound [L/h/kg]=Clint [L/h/kg]/Fu,inc where: fu,inc equals hepatocyte binding, derived from microsomal binding (fu,mic) by following equation: […]

[2] = target: T1, human IRAK-4 (Homo sapiens, UniProt Q9NWZ3); test: Phosphorylation IC50 determination for human IRAK-4 (ADP-Glo Kinase Assay); conditions: human IRAK-4, substrate RIP140, Km ATP; read-out: IRAK4 ADPglo biochemical assay IC50
T1 construct: purchased Carna Biosciences 09 145
T1 sequence (Q9NWZ3 1-460): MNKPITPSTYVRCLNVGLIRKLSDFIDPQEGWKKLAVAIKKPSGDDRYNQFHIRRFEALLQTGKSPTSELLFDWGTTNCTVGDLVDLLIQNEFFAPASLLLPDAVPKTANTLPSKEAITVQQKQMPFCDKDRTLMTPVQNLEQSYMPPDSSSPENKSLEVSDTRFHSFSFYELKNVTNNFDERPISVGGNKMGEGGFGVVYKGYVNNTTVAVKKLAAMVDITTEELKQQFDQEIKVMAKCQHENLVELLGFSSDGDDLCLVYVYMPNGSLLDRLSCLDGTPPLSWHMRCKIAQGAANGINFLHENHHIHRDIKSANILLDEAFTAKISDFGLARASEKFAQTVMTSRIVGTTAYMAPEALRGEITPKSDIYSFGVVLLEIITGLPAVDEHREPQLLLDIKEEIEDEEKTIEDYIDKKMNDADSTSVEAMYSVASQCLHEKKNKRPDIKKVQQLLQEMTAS
Experimental: The phosphorylation of the substrate RIP140 (SEQ ID1) by IRAK4 at Km ATP was detected with the ADP-Glo Kinase Assay (Promega, Cat #V9103), a luminescent kinase assay which measures the ADP formed from a kinase reaction. (Zegzouti et al. 2009) In a second step the kinase reaction was terminated and all the remaining ATP was depleted. In a final step the ADP was converted into ATP and this newly synthesized ATP was measured by using a luciferase/luciferin reaction with a luminescent reader. The luminescent signal positively correlated with kinase activity, in particular kinase inhibition giving a decrease of the luminescent signal.
For the semi-automated assay, the positive control (100% inhibition) was prepared by diluting 10 mM staurosporine stock mixture (20 μL) in water (3.8 mL) and DMSO (180 μL), thus resulting in a […] staurosporine solution at 1% DMSO (final concentration after further dilution in the kinase reaction).
For the automated assay, no pre-dilution of the 10 mM staurosporine stock was made. 10 mM staurosporine was spotted directly in the assay plate using acoustic dispensing and complemented with DMSO to result in a similar final concentration as mentioned above.
For the semi-automated assay, the negative control (0% inhibition) was prepared by mixing water (3.8 mL) and DMSO (200 μL) resulting in a final concentration of 1% DMSO after further dilution in the kinase reaction. For the automated assay no pre-dilution of DMSO was done. 100% DMSO was spotted directly on the assay plate.
The assay buffer solution was prepared at a concentration corresponding to 5 fold the final (most diluted) assay concentration by mixing a solution of 125 mM TRIS pH 7.5+0.05% Triton X-100+2.5 mM EGTA (5.27 mL) with 1M mgCl2 (72 μL), 1M DTT (57.6 μL), and 200 mM MnCl2 (360 μL).
For example, for the semi-automated method, the enzyme-substrate mixture was prepared by mixing water (3999 μL), assay buffer solution (1380 μL), 1 mM RIP140 (138 μL—SEQ ID1), and 200 ng/mL IRAK 4 (3.45 μL Carna Biosciences, 09 145).
For semi-automated method, the ATP mixture was prepared at a concentration corresponding to 2.5 fold the final (most diluted) assay concentration of the semi-automated method and 1.5 fold the final (most diluted) assay concentration of the automated method. For example, for the semi-automated method, the ATP mixture was prepared by mixing water (4126 μL), assay buffer solution (1380 μL), and 10 mM ATP (13.80 μL).
The assay are performed either in a semi-automated or fully automated manner. The assay volume and the incubation time of the ADP detection were different accordingly the method used.
The compounds were prepared as a serial dilution of 10 point dose responses with 1/5 dilution steps in 100% DMSO starting from 2 mM highest concentration, diluted 1/20 in water. 1 μL was transferred dry to the assay plates.
On each assay plate 32 wells of each control (positive & negative) were added, followed by 2 μL enzyme-substrate mixture.
The reaction was started by adding 2 μL diluted ATP (final concentration Km ATP) on the assay plates. Plates were centrifuged for a few seconds at 1000 rpm followed by an incubation at r.t. for 120 min.
The reactions were stopped and the unconsumed ATP was depleted by adding 5 μL ADP-glo Reagent (Promega, Cat #V9103) to the reaction. The plates were quickly centrifuged at 1000 rpm and incubated at r.t. for 40 min corresponding to full ATP depletion.
The ADP was converted back to ATP and luciferase and luciferin were introduced to detect ATP by adding 10 μL kinase detection reagent (Promega, Cat #V9103) to the reaction. The plates were centrifuged for a few seconds at 1000 rpm and incubated at r.t. for a further 30 min.
Luminescent read out was performed on an Envision luminescent reader (Perkin Elmer).
For the automated assay, the compounds were prepared as a serial dilution of 10 point dose responses with 1/5 dilution steps in 100% DMSO starting from 2 mM highest concentration. […]

[3] = test system: Human Hepatocyte; test: Metabolic stability in human hepatocytes; assay type: in vitro ADME; conditions: human cryopreserved hepatocytes, 1 μM
Experimental: as §1, §2, §3, §4, §5, §6, §7, §8

[4] = Thermodynamic solubility; assay type: physicochemical; conditions: Fasted State Simulated Intestine Fluid (FaSSIF), 37 °C, fassif, thermodynamic from solid, Fasted State Simulated Intestine Fluid, read-out: Tsol FaSSIF
Experimental: In a 8 mL glass vial, 1-2 mg of dry matter of compound were added and stirred with the suitable buffers (Fed State Simulated Intestine Fluid, FeSSIF, or Fasted State Simulated Intestine Fluid, FaSSIF, or Fasted State Simulated Gastric Fluid, FaSSGF, or phosphate buffer pH 7.4) for 24 h at r.t. (for the buffer pH 7.4) or 37° C. (for the GI fluids). The concentration of the mixture was 1 mg/mL.
A volume of 1000 μL were sampled, centrifuged for 10 min at 10 000 rpm and 500 μL of the supernatant were filtered on captiva plate. The samples are diluted in duplicates in DMSO (F100 and F10). Then, a final dilution (F100) in 80/20 H2O/MeCN containing the internal standard (warfarin) was used for LCMS-MS analysis.
A standard curve was made starting from a 40,000 ng/mL stock in DMSO, freshly prepared from dry matter. Then, successive concentrations at 15,000, 11,000, 6,000, 2,500, 1,000, 375, 150 and 75 ng/mL in DMSO were prepared.
Three quality control samples were made: one of 10,000, 1,500 and 200 ng/mL in DMSO, also starting from the DMSO working stock solution at 40,000 ng/mL.
The standard curve and quality controls were diluted a F100 in 80/20 H2O/MeCN (with internal standard) and analyzed on LC/MS-MS (API4000 or API5500).
The samples were analyzed on LC-MS with a flow rate of 0.6 mL/min. The mobile phase A was 0.1% formic acid in water and the mobile phase B was 0.1% formic acid in 90% MeCN and 10% of water. The sample was run under positive or negative ion spray on Pursuit C18—5 μm (2.0×20 mm) column, from Agilent.
The ratio analyte/internal standard peaks areas of the standard curve were plotted in a graph and a linear or polynomial of the second order equation was used to calculate the unknown concentrations of the test compound.
Solubility values were reported in μM and g/mL.

Row | Mouse Hepatocyte stability (Perc. remaining at 90 min) [1] [Perc.] | IC50 [2] [nM] | Human Hepatocyte stability (Perc. remaining at 90 min) [3] [Perc.] | solubility thermodynamic at 24 h [4] [µg/mL] | SMILES
1 | 103.55 | 0.1 to 5 | 85.9 |  | COc1cc2nc(C3COCCO3)cn2cc1NC(=O)c1cccc(C(F)(F)F)n1 (stereo not shown) [Compound 4, N-[2-(1,4-dioxan-2-yl)-7-methoxy-imidazo[1,2-a]pyridin-6-yl]-6-(trifluoromethyl)pyridine-2-carboxamide]
2 |  | 10 to 50 | 99.95 | 86.2 (≈ 224 µM) | COc1cc2nc(C3COCCO3)cn2cc1NC(=O)c1cccn(C)c1=O (stereo not shown) [Compound 10, N-(2-(1,4-dioxan-2-yl)-7-methoxyimidazo[1,2-a]pyridin-6-yl)-1-methyl-2-oxo-1,2-dihydropyridine-3-carboxamide]
3 | 75.1 | 5 to 10 | 85.35 |  | CCOc1c(NC(=O)c2cccn(C3CC3)c2=O)cn2cc(C3CCOCC3)nc2c1F [Compound 12, 1-cyclopropyl-N-(7-ethoxy-8-fluoro-2-(tetrahydro-2H-pyran-4-yl)imidazo[1,2-a]pyridin-6-yl)-2-oxo-1,2-dihydropyridine-3-carboxamide]
4 | 72.8 | 0.1 to 5 | 93.85 |  | CC(F)(F)c1cccc(C(=O)Nc2cn3cc(C4COCCO4)nc3cc2C(N)=O)n1 (stereo not shown) [Compound 13, 6-(6-(1,1-difluoroethyl)picolinamido)-2-(1,4-dioxan-2-yl)imidazo[1,2-a]pyridine-7-carboxamide]
5 |  | 10 to 50 |  |  | O=C(Nc1cn2cc(C3CCOCC3)nc2cc1C(=O)NC1CC1)c1cccc(C(F)(F)F)n1 [Compound 15, N-cyclopropyl-2-(tetrahydro-2H-pyran-4-yl)-6-(6-(trifluoromethyl)picolinamido)imidazo[1,2-a]pyridine-7-carboxamide]
6 |  | 10 to 50 |  |  | CCNC(=O)c1cc2nc(C3CCOCC3)cn2cc1NC(=O)c1cccc(C(F)(F)F)n1 [Compound 16, N-ethyl-2-(tetrahydro-2H-pyran-4-yl)-6-(6-(trifluoromethyl)picolinamido)imidazo[1,2-a]pyridine-7-carboxamide]
7 |  | 5 to 10 |  |  | O=C(Nc1cn2cc(C3CCOCC3)nc2cc1C(=O)NCC(F)F)c1cccc(C(F)(F)F)n1 [Compound 17, N-(2,2-difluoroethyl)-2-(tetrahydro-2H-pyran-4-yl)-6-(6-(trifluoromethyl)picolinamido)imidazo[1,2-a]pyridine-7-carboxamide]
8 |  | 10 to 50 |  |  | CC(C)(C)NC(=O)c1cc2nc(C3CCOCC3)cn2cc1NC(=O)c1cccc(C(F)(F)F)n1 [Compound 18, N-(tert-butyl)-2-(tetrahydro-2H-pyran-4-yl)-6-(6-(trifluoromethyl)picolinamido)imidazo[1,2-a]pyridine-7-carboxamide]
9 |  | 10 to 50 |  |  | O=C(Nc1cn2cc(C3CCOCC3)nc2cc1C(=O)NCC(F)(F)F)c1cccc(C(F)(F)F)n1 [Compound 21, 2-(tetrahydro-2H-pyran-4-yl)-N-(2,2,2-trifluoroethyl)-6-(6-(trifluoromethyl)picolinamido)imidazo[1,2-a]pyridine-7-carboxamide]
10 |  | 10 to 50 |  |  | O=C(Nc1cn2cc(C3CCOCC3)nc2cc1C(=O)NC1COC1)c1cccc(C(F)(F)F)n1 [Compound 22, N-(oxetan-3-yl)-2-(tetrahydro-2H-pyran-4-yl)-6-(6-(trifluoromethyl)picolinamido)imidazo[1,2-a]pyridine-7-carboxamide]
11 |  | 10 to 50 |  |  | COc1cc2nc(C3CCS(=O)(=O)CC3)cn2cc1NC(=O)c1cccn(C)c1=O [Compound 24, N-(2-(1,1-dioxidotetrahydro-2H-thiopyran-4-yl)-7-methoxyimidazo[1,2-a]pyridin-6-yl)-1-methyl-2-oxo-1,2-dihydropyridine-3-carboxamide]
